The values below come from ChEMBL document CHEMBL1201862, “PubChem BioAssay data set” (2004).

The structures appear in SMILES notation.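 The compound was tested at five concentrations on cells cultured in 96-well plates, with a 48-hour exposure period. Here, GI50 denotes the concentration required for 50% inhibition of growth.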 Activity calls are given as the source filed them. No stated cut-off is given here; in the data, active = GI50 up to about 1.1 µM and inactive = higher.

Among the test systems are SF-295; SN12C; NCI-H522; EKVX; OVCAR-5; UACC-257; RPMI-8226; HT-29; SNB-19; HOP-92; KM12; OVCAR-8; DLD-1; SF-268; HCT-116; M14; LOX IMVI; UACC-62; SW-620; U-251.
Test in all cases: DTP human tumour cell line panel, 48 h

Usually GI50 stands for the concentration that inhibits growth by half. For the compound `CCCN1CC=CCC1`, the GI50 in the test with SF-295, in the test on SN12C, with NCI-H522, with EKVX, with OVCAR-5 and in the test on UACC-257 was > 100 µM (inactive) each time. Besides, the GI50 in the test with RPMI-8226, in the test with HT-29, with SNB-19, in the test on HOP-92, in the test on KM12 and in the test with OVCAR-8 was > 100 µM (inactive) throughout. Besides, the GI50 with DLD-1, in the test with SF-268, in the test on HCT-116, with M14, with LOX IMVI and in the test with UACC-62 was > 100 µM (inactive) in each case. The GI50 in the test with SW-620 and in the test with U-251 was > 100 µM (inactive) in each case.

As to `COc1ccc2c(NCCCCCCNc3c4ccccc4nc4cc(OC)ccc34)c3ccccc3nc2c1`, the GI50 in the test on SF-295 was 0.286 µM (active); in the test on SN12C, 0.0676 µM (active); with NCI-H522, 0.0624 µM (active); in the test with EKVX it was 0.579 µM (active); with OVCAR-5, 0.186 µM (active); in the test on UACC-257, 0.731 µM (active). Moreover, the GI50 is 0.0573 µM (active) in the test on RPMI-8226; 0.029 µM (active) in the test on HT-29; 0.218 µM (active) in the test with SNB-19; 0.1 µM (active) with HOP-92; 0.0776 µM (active) with KM12; 0.0853 µM (active) in the test on OVCAR-8. Moreover, the concentration for 50% growth inhibition (GI50) was 0.242 µM (active) in the test on DLD-1; 0.213 µM (active) in the test with SF-268; 0.0451 µM (active) in the test on HCT-116; 0.48 µM (active) in the test with M14; 0.0653 µM (active) in the test with LOX IMVI; 0.263 µM (active) with UACC-62. The results for the GI50 in the test with SW-620 and in the test with U-251 were 0.0448 µM (active) and 0.0728 µM (active), respectively.

Regarding `C#CCN(N=O)C(=O)NC(CCCCNC(=O)OCc1ccccc1)C(=O)OCc1ccccc1` (stereo not given), the GI50 is 55.5 µM (inactive) in the test with SF-295; 28.4 µM (inactive) with SN12C; 13.9 µM (inactive) with NCI-H522; 22.7 µM (inactive) with EKVX; 24.5 µM (inactive) in the test with OVCAR-5; 28.1 µM (inactive) in the test with UACC-257. In addition, the GI50 in the test with RPMI-8226 is 18.7 µM (inactive); in the test on HT-29 it was 21.2 µM (inactive); with SNB-19, 47.2 µM (inactive); with HOP-92, 15.7 µM (inactive); in the test with KM12 it was 77.3 µM (inactive); with OVCAR-8 it was 17.4 µM (inactive). Besides, the GI50 in the test with DLD-1 was 20.1 µM (inactive); in the test on SF-268, 47 µM (inactive); in the test on HCT-116, 33.8 µM (inactive); in the test with M14, 21.4 µM (inactive); with LOX IMVI it was 25.5 µM (inactive); with UACC-62 it was 32.7 µM (inactive). Also, the GI50 in the test on SW-620 is 23.3 µM (inactive); with U-251 it was 27.9 µM (inactive).

As for `CCc1cccc(C(C)CC)c1NC(=O)C(=O)Cc1nc2ccccc2o1` (stereo not given), the GI50 in the test with SF-295 was > 50 µM (inactive); in the test with SN12C it was > 50 µM (inactive); with NCI-H522, > 50 µM (inactive); in the test on EKVX, > 50 µM (inactive); in the test with OVCAR-5, > 43.8 µM (inactive); in the test with UACC-257, > 50 µM (inactive). The GI50 in the test on RPMI-8226, in the test on HT-29, in the test with SNB-19, in the test with HOP-92, in the test with KM12 and with OVCAR-8 was > 50 µM (inactive) in each case. For the same compound, the GI50 with DLD-1, in the test with SF-268, in the test with HCT-116, with M14, with LOX IMVI and in the test on UACC-62 was > 50 µM (inactive) each time. The GI50 in the test with SW-620 and in the test on U-251 was > 50 µM (inactive) in each case.

Take `O=C1C(Cl)=C(N2CCN(C3=C(Cl)C(=O)c4ccccc4C3=O)CC2)C(=O)c2ccccc21`: the GI50 in the test on SF-295 is 7.62 µM (inactive); with SN12C, 1.69 µM (inactive); with NCI-H522, 0.652 µM (active); with EKVX it was 1.79 µM (inactive); in the test on OVCAR-5, 6.64 µM (inactive); in the test with UACC-257 it was 1.46 µM (inactive). Moreover, the GI50 is 0.436 µM (active) in the test with RPMI-8226; 2.23 µM (inactive) in the test on HT-29; 14.9 µM (inactive) with SNB-19; 1.04 µM (active) in the test on HOP-92; 4.81 µM (inactive) in the test with KM12; 1.69 µM (inactive) in the test with OVCAR-8. Also, the GI50 with DLD-1 was 0.428 µM (active); in the test on SF-268 it was 2.62 µM (inactive); in the test on HCT-116 it was 1.44 µM (inactive); with M14 it was 1.53 µM (inactive); with LOX IMVI, 1.71 µM (inactive); in the test with UACC-62, 1.79 µM (inactive). The GI50 was 1.17 µM (inactive) in the test with SW-620 and 3.13 µM (inactive) with U-251.

Turning to `Cc1cc(Cl)ccc1NC(=O)C(=O)Cc1occc(=O)c1O`, the GI50 with SF-295, in the test with SN12C, with NCI-H522, in the test with EKVX, in the test with OVCAR-5 and with UACC-257 was > 100 µM (inactive) throughout. Moreover, the GI50 with RPMI-8226, with HT-29, with SNB-19, with HOP-92, in the test on KM12 and in the test with OVCAR-8 was > 100 µM (inactive) in each case. For the same compound, the GI50 in the test with DLD-1, in the test on SF-268, in the test on HCT-116, with M14, with LOX IMVI and in the test on UACC-62 was > 100 µM (inactive) each time. In addition, the GI50 in the test on SW-620 and in the test on U-251 was > 100 µM (inactive) each time.
